Source: the supplement of paper PMC11451515

Tested on: NOMO1
Assay: cell viability relative to DMSO control; higher = less cytotoxic
Conditions: 48 h
Method in brief: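 Viability was expressed as a per-plate percentage of DMSO wells, with cell-free wells as background. Leukemia cells (NOMO1 or SEM at 500 cells/well, P12-Ichikawa at 1000 cells/well) were adapted for at least four passages in each medium and seeded in 1536-well plates (5 μl). Library compounds in DMSO were pin-dosed over an 11-point threefold series from 47 μM to 0.79 nM, and CellTiter-Glo One luminescence was read after 48 h at 37°C.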

[1] = HPLM + 10% dialyzed FBS, 0.000781 µM
[2] = HPLM + 10% dialyzed FBS, 0.00234 µM
[3] = HPLM + 10% dialyzed FBS, 0.00702 µM
[4] = HPLM + 10% dialyzed FBS, 0.0211 µM
[5] = HPLM + 10% dialyzed FBS, 0.0632 µM
[6] = HPLM + 10% dialyzed FBS, 0.19 µM
[7] = HPLM + 10% dialyzed FBS, 0.569 µM
[8] = HPLM + 10% dialyzed FBS, 1.71 µM
[9] = HPLM + 10% dialyzed FBS, 5.12 µM
[10] = HPLM + 10% dialyzed FBS, 15.4 µM
[11] = HPLM + 10% dialyzed FBS, 46.1 µM
[12] = RPMI 5 mM glucose + 10% FBS, 0.000781 µM
[13] = RPMI 5 mM glucose + 10% FBS, 0.00234 µM
[14] = RPMI 5 mM glucose + 10% FBS, 0.00702 µM
[15] = RPMI 5 mM glucose + 10% FBS, 0.0211 µM
[16] = RPMI 5 mM glucose + 10% FBS, 0.0632 µM
[17] = RPMI 5 mM glucose + 10% FBS, 0.19 µM
[18] = RPMI 5 mM glucose + 10% FBS, 0.569 µM
[19] = RPMI 5 mM glucose + 10% FBS, 1.71 µM
[20] = RPMI 5 mM glucose + 10% FBS, 5.12 µM
[21] = RPMI 5 mM glucose + 10% FBS, 15.4 µM
[22] = RPMI 5 mM glucose + 10% FBS, 46.1 µM
[23] = RPMI 5 mM glucose + 10% dialyzed FBS, 0.000781 µM
[24] = RPMI 5 mM glucose + 10% dialyzed FBS, 0.00234 µM
[25] = RPMI 5 mM glucose + 10% dialyzed FBS, 0.00702 µM
[26] = RPMI 5 mM glucose + 10% dialyzed FBS, 0.0211 µM
[27] = RPMI 5 mM glucose + 10% dialyzed FBS, 0.0632 µM
[28] = RPMI 5 mM glucose + 10% dialyzed FBS, 0.19 µM
[29] = RPMI 5 mM glucose + 10% dialyzed FBS, 0.569 µM
[30] = RPMI 5 mM glucose + 10% dialyzed FBS, 1.71 µM
[31] = RPMI 5 mM glucose + 10% dialyzed FBS, 5.12 µM
[32] = RPMI 5 mM glucose + 10% dialyzed FBS, 15.4 µM
[33] = RPMI 5 mM glucose + 10% dialyzed FBS, 46.1 µM

Compound	cell viability [1] [%]	cell viability [2] [%]	cell viability [3] [%]	cell viability [4] [%]	cell viability [5] [%]	cell viability [6] [%]	cell viability [7] [%]	cell viability [8] [%]	cell viability [9] [%]	cell viability [10] [%]	cell viability [11] [%]	cell viability [12] [%]	cell viability [13] [%]	cell viability [14] [%]	cell viability [15] [%]	cell viability [16] [%]	cell viability [17] [%]	cell viability [18] [%]	cell viability [19] [%]	cell viability [20] [%]	cell viability [21] [%]	cell viability [22] [%]	cell viability [23] [%]	cell viability [24] [%]	cell viability [25] [%]	cell viability [26] [%]	cell viability [27] [%]	cell viability [28] [%]	cell viability [29] [%]	cell viability [30] [%]	cell viability [31] [%]	cell viability [32] [%]	cell viability [33] [%]
CNc1nc(Nc2cnn([C@H]3CCN(C4COC4)C[C@@H]3F)c2Cl)ncc1C(F)(F)F	105	105	115	116	120	36.8	82.4	35.6	39.6	36.5	29.5	97.2	109	110	118	105	107	115	65.4	19.3	19.6	18	98.8	110	108	107	118	127	103	126	39.6	23.6	26.5
COC(=O)c1ccc2c(c1)NC(=O)/C2=C(\Nc1ccc(N(C)C(=O)CN2CCN(C)CC2)cc1)c1ccccc1	92.1	92.1	106	99.5	106	91.3	89	103	87	91.9	84.4	98.3	96.8	96.5	97.4	89.3	110	109	97.8	92.6	83.4	83.1	92.7	93	94.7	90.8	93.5	95.2	85.3	88.9	88.5	96.8	98.5
CC[C@H]1OC(=O)[C@H](C)C(=O)[C@H](C)[C@@H](O[C@H]2O[C@H](C)C[C@H](N(C)C)[C@H]2O)[C@](C)(OC)C[C@@H](C)C(=O)[C@H](C)[C@H]2N(CCCCn3cnc(-c4cccnc4)c3)C(=O)O[C@]12C	–	–	–	–	–	–	–	–	–	–	–	127	118	118	111	115	120	104	116	118	107	103	102	121	110	109	113	104	100	98.8	116	107	95.9
C[C@@H](CN1CC(=O)NC(=O)C1)N1CC(=O)NC(=O)C1	112	125	121	117	113	55.7	32.8	22.3	33	8.92	13.7	106	113	125	101	113	89	55.9	15.4	17.5	8.63	12.9	102	111	99.9	114	109	83	44.7	18.8	21.5	17.2	19.8
COc1cccc2c1C(=O)c1c(O)c3c(c(O)c1C2=O)C[C@@](O)(C(=O)CO)C[C@@H]3O[C@H]1C[C@H](N)[C@H](O)[C@H](C)O1	112	127	108	120	96.2	108	116	90.2	8.77	37.4	6.99	116	111	107	115	102	102	108	102	7.5	25.6	6.28	112	116	105	104	107	110	100	104	8.85	34.3	5.09
Nc1ncnc2c1ncn2[C@@H]1O[C@H](CO)C[C@H]1O	105	97.1	97.1	102	94.3	101	73	87.4	95.2	81.7	79.8	85.7	87	94.7	87.9	93	84.4	88	80.7	91.1	82.5	92.4	103	109	94.9	103	103	90.2	87.8	92.2	85.6	91.2	92.1
CN1\C=N/C2=CC=C(NC3=CC(=CC=C3C)NC(=O)C4=CC(=CC=C4)C(C)(C)C#N)C=C2C1=O	97.8	107	96.4	105	92.7	94.6	76.8	76.3	52.1	52.7	19.1	93.6	95.1	111	99	89.6	88.5	81.2	75.6	47.7	46.3	28.1	110	92.4	92.9	101	91.2	79.2	76.6	65.5	46.8	46.3	28.6
COc1ccc(C(=O)c2c(C)n(CCN3CCOCC3)c3cc(I)ccc23)cc1	–	–	–	–	–	–	–	–	–	–	–	105	112	126	133	138	122	119	29.9	27.1	24.9	21.1	100	115	124	116	130	126	137	52.3	29.1	27.4	23.3
